Data published in US20210045385A1, “PYRIDAZINONE-SUBSTITUTED KETOXIMES AS HERBICIDES” (FMC Corporation, priority 2018, published 2021).

Key:
Assay type in all cases: in vivo
[1] = test system: Italian ryegrass (Lolium multiflorum); assay: Test A preemergence, visual plant response rating; details: for Ryegrass, Italian plant response rating: 125 g ai/ha, preemergence, 0 to 100 scale, 0 no effect, 100 complete control; for Ryegrass, Italian plant response rating (0 to 100 scale): 500 g ai/ha Preemergence, approx. 10 days
Outline: (§1)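 Ratings use a 0–100 visual scale (100 = complete control) against untreated controls, scored about 10 days after greenhouse treatment. Test chemicals were formulated in surfactant-containing non-phytotoxic solvent and applied either as soil spray after planting (preemergence) or onto one- to two-leaf, 2–10 cm plants (postemergence).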

[2] = test system: barnyardgrass (Echinochloa crus-galli); assay: Test A preemergence, visual plant response rating; details: for Barnyardgrass plant response rating: 125 g ai/ha, preemergence, 0 to 100 scale, 0 no effect, 100 complete control; for Barnyardgrass plant response rating (0 to 100 scale): 500 g ai/ha Preemergence, approx. 10 days
Outline: as §1

[3] = test system: foxtail, giant (giant foxtail, Setaria faberii); assay: Test A preemergence, visual plant response rating; details: for Foxtail, Giant plant response rating: 125 g ai/ha, preemergence, 0 to 100 scale, 0 no effect, 100 complete control; for Foxtail, Giant plant response rating (0 to 100 scale): 500 g ai/ha Preemergence, approx. 10 days
Outline: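 Formulated in a non-phytotoxic solvent mixture including surfactant, each test chemical was sprayed onto the soil surface after sowing, or onto seedlings 2 to 10 cm high. Roughly 10 days later, plants were compared with untreated controls and rated for injury from 0 (no effect) to 100 (complete control).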

[4] = test system: kochia (Kochia scoparia); assay: Test A preemergence, visual plant response rating; details: for Kochia plant response rating: 125 g ai/ha, preemergence, 0 to 100 scale, 0 no effect, 100 complete control; for Kochia plant response rating (0 to 100 scale): 500 g ai/ha Preemergence, approx. 10 days
Outline: as §1

[5] = test system: pigweed (Amaranthus retroflexus); assay: Test A preemergence, visual plant response rating; details: for Pigweed plant response rating: 125 g ai/ha, preemergence, 0 to 100 scale, 0 no effect, 100 complete control; for Pigweed plant response rating (0 to 100 scale): 500 g ai/ha Preemergence, approx. 10 days
Outline: as §1

[6] = test system: ragweed (common ragweed, Ambrosia elatior); assay: Test A preemergence, visual plant response rating; details: for Ragweed plant response rating: 125 g ai/ha, preemergence, 0 to 100 scale, 0 no effect, 100 complete control; for Ragweed plant response rating (0 to 100 scale): 500 g ai/ha Preemergence, approx. 10 days
Outline: as §1

[7] = test system: Italian ryegrass (Lolium multiflorum); assay: Test A postemergence, visual plant response rating; details: for Ryegrass, Italian plant response rating (0 to 100 scale): 500 g ai/ha, postemergence, 0 is no effect, 100 is complete control; for Ryegrass, Italian plant response rating: Postemergence, 125 g ai/ha, 0 to 100 scale (0 no effect, 100 complete control)
Outline: as §1

[8] = test system: barnyardgrass (Echinochloa crus-galli); assay: Test A postemergence, visual plant response rating; details: for Barnyardgrass plant response rating (0 to 100 scale): 500 g ai/ha, postemergence, 0 is no effect, 100 is complete control; for Barnyardgrass plant response rating: Postemergence, 125 g ai/ha, 0 to 100 scale (0 no effect, 100 complete control)
Outline: as §1

[9] = test system: blackgrass (Alopecurus myosuroides); assay: Test A postemergence, visual plant response rating; details: for Blackgrass plant response rating (0 to 100 scale): 500 g ai/ha, postemergence, 0 is no effect, 100 is complete control; for Blackgrass plant response rating: Postemergence, 125 g ai/ha, 0 to 100 scale (0 no effect, 100 complete control)
Outline: as §1

[10] = test system: corn (Zea mays); assay: Test A postemergence, visual plant response rating; details: for Corn plant response rating (0 to 100 scale): 500 g ai/ha, postemergence, 0 is no effect, 100 is complete control; for Corn plant response rating: Postemergence, 125 g ai/ha, 0 to 100 scale (0 no effect, 100 complete control)
Outline: as §1

[11] = test system: foxtail, giant (giant foxtail, Setaria faberii); assay: Test A postemergence, visual plant response rating; details: for Foxtail, Giant plant response rating (0 to 100 scale): 500 g ai/ha, postemergence, 0 is no effect, 100 is complete control; for Foxtail, Giant plant response rating: Postemergence, 125 g ai/ha, 0 to 100 scale (0 no effect, 100 complete control)
Outline: as §1

[12] = test system: galium (catchweed bedstraw, Galium aparine); assay: Test A postemergence, visual plant response rating; details: for Galium plant response rating (0 to 100 scale): 500 g ai/ha, postemergence, 0 is no effect, 100 is complete control; for Galium plant response rating: Postemergence, 125 g ai/ha, 0 to 100 scale (0 no effect, 100 complete control)
Outline: as §1

[13] = test system: kochia (Kochia scoparia); assay: Test A postemergence, visual plant response rating; details: for Kochia plant response rating (0 to 100 scale): 500 g ai/ha, postemergence, 0 is no effect, 100 is complete control; for Kochia plant response rating: Postemergence, 125 g ai/ha, 0 to 100 scale (0 no effect, 100 complete control)
Outline: as §1

[14] = test system: pigweed (Amaranthus retroflexus); assay: Test A postemergence, visual plant response rating; details: for Pigweed plant response rating (0 to 100 scale): 500 g ai/ha, postemergence, 0 is no effect, 100 is complete control; for Pigweed plant response rating: Postemergence, 125 g ai/ha, 0 to 100 scale (0 no effect, 100 complete control)
Outline: as §1

[15] = test system: ragweed (common ragweed, Ambrosia elatior); assay: Test A postemergence, visual plant response rating; details: for Ragweed plant response rating (0 to 100 scale): 500 g ai/ha, postemergence, 0 is no effect, 100 is complete control; for Ragweed plant response rating: Postemergence, 125 g ai/ha, 0 to 100 scale (0 no effect, 100 complete control)
Outline: as §1

[16] = test system: wheat (Triticum aestivum); assay: Test A postemergence, visual plant response rating; details: for Wheat plant response rating (0 to 100 scale): 500 g ai/ha, postemergence, 0 is no effect, 100 is complete control; for Wheat plant response rating: Postemergence, 125 g ai/ha, 0 to 100 scale (0 no effect, 100 complete control)
Outline: as §1

[17] = test system: barnyardgrass (Echinochloa crus-galli); assay: Test B flooded paddy test, visual plant response rating; details: 250 g ai/ha, Flood, applied to paddy water, 2-leaf stage, evaluated after 13 to 15 days
Outline: (§2)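 2-leaf plants; pots flooded 3 cm over soil surface; compound dosed straight into the floodwater; depth kept constant; greenhouse 13–15 d; visual rating vs. untreated controls.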

[18] = test system: ducksalad (Heteranhera limosa); assay: as above; details: 250 g ai/ha, Flood, applied to paddy water, 2-leaf stage, evaluated after 13 to 15 days
Outline: as §2

[19] = test system: rice (Oryza sativa); assay: as above; details: 250 g ai/ha, Flood, applied to paddy water, 2-leaf stage, evaluated after 13 to 15 days
Outline: as §2

[20] = test system: sedge, umbrella (small-flower umbrella sedge, Cyperus difformis); assay: as above; details: 250 g ai/ha, Flood, applied to paddy water, 2-leaf stage, evaluated after 13 to 15 days
Outline: as §2

Row | Compound | Ryegrass, Italian plant response rating [1] | Ryegrass, Italian plant response rating (0 to 100 scale) [1] | Barnyardgrass plant response rating [2] | Barnyardgrass plant response rating (0 to 100 scale) [2] | Foxtail, Giant plant response rating [3] | Foxtail, Giant plant response rating (0 to 100 scale) [3] | Kochia plant response rating [4] | Kochia plant response rating (0 to 100 scale) [4] | Pigweed plant response rating [5] | Pigweed plant response rating (0 to 100 scale) [5] | Ragweed plant response rating [6] | Ragweed plant response rating (0 to 100 scale) [6] | Ryegrass, Italian plant response rating (0 to 100 scale) [7] | Ryegrass, Italian plant response rating [7] | Barnyardgrass plant response rating (0 to 100 scale) [8] | Barnyardgrass plant response rating [8] | Blackgrass plant response rating (0 to 100 scale) [9] | Blackgrass plant response rating [9] | Corn plant response rating (0 to 100 scale) [10] | Corn plant response rating [10] | also measured
1 | CON=C(c1ccc(F)cc1C)c1c(O)c(C)nn(C)c1=O [Compound 41] | 0 | 20 | 0 | 10 | 0 | 0 | 0 | 0 | 0 | 80 | 0 | 80 | 60 | 0 | 0 | 0 | 0 | 0 | 0 | 0 | Foxtail, Giant plant response rating (0 to 100 scale) [11]: 0; Foxtail, Giant plant response rating [11]: 0; Galium plant response rating (0 to 100 scale) [12]: 70; Galium plant response rating [12]: 70; Kochia plant response rating (0 to 100 scale) [13]: 60; Kochia plant response rating [13]: 20; Pigweed plant response rating (0 to 100 scale) [14]: 90; Pigweed plant response rating [14]: 40; Ragweed plant response rating (0 to 100 scale) [15]: 60; Ragweed plant response rating [15]: 30; Wheat plant response rating (0 to 100 scale) [16]: 20; Wheat plant response rating [16]: 0; Plant response rating, Barnyardgrass (0 to 100 scale, 0 is no effect, 100 is complete control) [17]: 0; Plant response rating, Ducksalad (0 to 100 scale, 0 is no effect, 100 is complete control) [18]: 0; Plant response rating, Rice (0 to 100 scale, 0 is no effect, 100 is complete control) [19]: 0; Plant response rating, Sedge, Umbrella (0 to 100 scale, 0 is no effect, 100 is complete control) [20]: 0
2 | CO/N=C(\c1sccc1C)c1c(O)c(C)nn(C)c1=O [Compound 42] | 0 | 20 | 0 | 0 | 0 | 0 | 0 | 10 | 0 | 20 | 60 | 80 | 70 | 50 | 10 | 0 | 0 | 0 | 0 | 0 | Foxtail, Giant plant response rating (0 to 100 scale) [11]: 10; Foxtail, Giant plant response rating [11]: 0; Galium plant response rating (0 to 100 scale) [12]: 60; Galium plant response rating [12]: 70; Kochia plant response rating (0 to 100 scale) [13]: 50; Kochia plant response rating [13]: 20; Pigweed plant response rating (0 to 100 scale) [14]: 80; Pigweed plant response rating [14]: 60; Ragweed plant response rating (0 to 100 scale) [15]: 50; Ragweed plant response rating [15]: 40; Wheat plant response rating (0 to 100 scale) [16]: 0; Wheat plant response rating [16]: 0; Plant response rating, Barnyardgrass (0 to 100 scale, 0 is no effect, 100 is complete control) [17]: 15; Plant response rating, Ducksalad (0 to 100 scale, 0 is no effect, 100 is complete control) [18]: 20; Plant response rating, Rice (0 to 100 scale, 0 is no effect, 100 is complete control) [19]: 10; Plant response rating, Sedge, Umbrella (0 to 100 scale, 0 is no effect, 100 is complete control) [20]: 20
